From patent US11419806B2, “Prebiotic oral care methods using a saccharide” (Colgate-Palmolive Company, priority 2013, dated 2022)

Key:
Assay in all cases: Twenty-four hour optical density growth in BHI
Assay type in all cases: cell-based
Streptococcus salivarius = conditions: S salivarius
Streptococcus sobrinus = conditions: S sobrinus
Actinomyces viscosus = conditions: A viscosus
Outline: (§1)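 Late-exponential cultures in BHI were adjusted to 1×10^7 CFU/ml and exposed to myo-inositol, D-lactitol, D-turanose or N-acetyl-D-mannosamine at final 5, 10, 20 and 25 μmol/ml, with no-saccharide controls. Incubation was anaerobic at 37° C; OD630 was read at 0 h and 24 h. Values are means of three days, each averaging quadruplicates.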

Tannerella forsythia = conditions: T forsythia
Outline: as §1

Streptococcus mitis = conditions: S mitis
Porphyromonas gingivalis = conditions: P gingivalis
Outline: as §1

Veillonella parvula = conditions: V parvula
Outline: as §1

[1] = system: Aggregatibacter actinomycetemcomitans; conditions: A actinomycetemcomitans
Capnocytophaga sputigena = conditions: C sputigena
Outline: as §1

Prevotella intermedia = conditions: P intermedia
Outline: as §1

Streptococcus mutans = conditions: S mutans
Actinomyces naeslundii = conditions: A naeslundii
Outline: as §1

Streptococcus gordonii = conditions: S gordonii

Compound: OC[C@H]1O[C@@](O)(CO)[C@@H](O[C@H]2O[C@H](CO)[C@@H](O)[C@H](O)[C@H]2O)[C@@H]1O [D-Turanose, α-D-glucopyranosyl-(1→3)-α-D-fructofuranose]
- extent of growth: maximal OD630 over 24 hr divided by maximal OD of control (control = 1) (Streptococcus salivarius; 5 μmol/ml): 0.9483
- extent of growth: maximal OD630 over 24 hr divided by maximal OD of control (control = 1) (Streptococcus salivarius; 10 μmol/ml): 0.9662
- extent of growth: maximal OD630 over 24 hr divided by maximal OD of control (control = 1) (Streptococcus salivarius; 20 μmol/ml): 0.9401
- extent of growth: maximal OD630 over 24 hr divided by maximal OD of control (control = 1) (Streptococcus salivarius; 25 μmol/ml): 0.9445
- extent of growth: maximal OD630 over 24 hr divided by maximal OD of control (control = 1) (Streptococcus sobrinus; 5 μmol/ml): 1.1731
- extent of growth: maximal OD630 over 24 hr divided by maximal OD of control (control = 1) (Streptococcus sobrinus; 10 μmol/ml): 1.1323
- extent of growth: maximal OD630 over 24 hr divided by maximal OD of control (control = 1) (Streptococcus sobrinus; 20 μmol/ml): 1.0466
- extent of growth: maximal OD630 over 24 hr divided by maximal OD of control (control = 1) (Streptococcus sobrinus; 25 μmol/ml): 1.0760
- extent of growth: maximal OD630 over 24 hr divided by maximal OD of control (control = 1) (Actinomyces viscosus; 5 μmol/ml): 0.3631
- extent of growth: maximal OD630 over 24 hr divided by maximal OD of control (control = 1) (Actinomyces viscosus; 10 μmol/ml): 0.3079
- extent of growth: maximal OD630 over 24 hr divided by maximal OD of control (control = 1) (Actinomyces viscosus; 20 μmol/ml): 0.2558
- extent of growth: maximal OD630 over 24 hr divided by maximal OD of control (control = 1) (Actinomyces viscosus; 25 μmol/ml): 0.2348
- extent of growth: maximal OD630 over 24 hr divided by maximal OD of control (control = 1) (Tannerella forsythia; 5 μmol/ml): 0.9443
- extent of growth: maximal OD630 over 24 hr divided by maximal OD of control (control = 1) (Tannerella forsythia; 10 μmol/ml): 0.9445
- extent of growth: maximal OD630 over 24 hr divided by maximal OD of control (control = 1) (Tannerella forsythia; 20 μmol/ml): 0.9299
- extent of growth: maximal OD630 over 24 hr divided by maximal OD of control (control = 1) (Tannerella forsythia; 25 μmol/ml): 0.9298
- extent of growth: maximal OD630 over 24 hr divided by maximal OD of control (control = 1) (Streptococcus mitis; 5 μmol/ml): 1.4244
- extent of growth: maximal OD630 over 24 hr divided by maximal OD of control (control = 1) (Streptococcus mitis; 10 μmol/ml): 1.4274
- extent of growth: maximal OD630 over 24 hr divided by maximal OD of control (control = 1) (Streptococcus mitis; 20 μmol/ml): 1.3589
- extent of growth: maximal OD630 over 24 hr divided by maximal OD of control (control = 1) (Streptococcus mitis; 25 μmol/ml): 1.2710
- extent of growth: maximal OD630 over 24 hr divided by maximal OD of control (control = 1) (Porphyromonas gingivalis; 5 μmol/ml): 0.9385
- extent of growth: maximal OD630 over 24 hr divided by maximal OD of control (control = 1) (Porphyromonas gingivalis; 10 μmol/ml): 0.9601
- extent of growth: maximal OD630 over 24 hr divided by maximal OD of control (control = 1) (Porphyromonas gingivalis; 20 μmol/ml): 0.9183
- extent of growth: maximal OD630 over 24 hr divided by maximal OD of control (control = 1) (Porphyromonas gingivalis; 25 μmol/ml): 0.9574
- extent of growth: maximal OD630 over 24 hr divided by maximal OD of control (control = 1) (Veillonella parvula; 5 μmol/ml): 1.0000
- extent of growth: maximal OD630 over 24 hr divided by maximal OD of control (control = 1) (Veillonella parvula; 10 μmol/ml): 0.9980
- extent of growth: maximal OD630 over 24 hr divided by maximal OD of control (control = 1) (Veillonella parvula; 20 μmol/ml): 0.9904
- extent of growth: maximal OD630 over 24 hr divided by maximal OD of control (control = 1) (Veillonella parvula; 25 μmol/ml): 1.0049
- extent of growth: maximal OD630 over 24 hr divided by maximal OD of control (control = 1) ([1]; 5 μmol/ml): 0.7962
- extent of growth: maximal OD630 over 24 hr divided by maximal OD of control (control = 1) ([1]; 10 μmol/ml): 0.8318
- extent of growth: maximal OD630 over 24 hr divided by maximal OD of control (control = 1) ([1]; 20 μmol/ml): 0.8672
- extent of growth: maximal OD630 over 24 hr divided by maximal OD of control (control = 1) ([1]; 25 μmol/ml): 0.8368
- extent of growth: maximal OD630 over 24 hr divided by maximal OD of control (control = 1) (Capnocytophaga sputigena; 5 μmol/ml): 0.9568
- extent of growth: maximal OD630 over 24 hr divided by maximal OD of control (control = 1) (Capnocytophaga sputigena; 10 μmol/ml): 0.9629
- extent of growth: maximal OD630 over 24 hr divided by maximal OD of control (control = 1) (Capnocytophaga sputigena; 20 μmol/ml): 0.9558
- extent of growth: maximal OD630 over 24 hr divided by maximal OD of control (control = 1) (Capnocytophaga sputigena; 25 μmol/ml): 0.9630
- extent of growth: maximal OD630 over 24 hr divided by maximal OD of control (control = 1) (Prevotella intermedia; 5 μmol/ml): 1.1488
- extent of growth: maximal OD630 over 24 hr divided by maximal OD of control (control = 1) (Prevotella intermedia; 10 μmol/ml): 1.1312
- extent of growth: maximal OD630 over 24 hr divided by maximal OD of control (control = 1) (Prevotella intermedia; 20 μmol/ml): 1.0407
- extent of growth: maximal OD630 over 24 hr divided by maximal OD of control (control = 1) (Prevotella intermedia; 25 μmol/ml): 0.9664
- extent of growth: maximal OD630 over 24 hr divided by maximal OD of control (control = 1) (Streptococcus mutans; 5 μmol/ml): 1.0547
- extent of growth: maximal OD630 over 24 hr divided by maximal OD of control (control = 1) (Streptococcus mutans; 10 μmol/ml): 0.9829
- extent of growth: maximal OD630 over 24 hr divided by maximal OD of control (control = 1) (Streptococcus mutans; 20 μmol/ml): 0.9244
- extent of growth: maximal OD630 over 24 hr divided by maximal OD of control (control = 1) (Streptococcus mutans; 25 μmol/ml): 0.9121
- extent of growth: maximal OD630 over 24 hr divided by maximal OD of control (control = 1) (Actinomyces naeslundii; 5 μmol/ml): 0.9281
- extent of growth: maximal OD630 over 24 hr divided by maximal OD of control (control = 1) (Actinomyces naeslundii; 10 μmol/ml): 0.9561
- extent of growth: maximal OD630 over 24 hr divided by maximal OD of control (control = 1) (Actinomyces naeslundii; 20 μmol/ml): 0.9443
- extent of growth: maximal OD630 over 24 hr divided by maximal OD of control (control = 1) (Actinomyces naeslundii; 25 μmol/ml): 0.9441
- extent of growth: maximal OD630 over 24 hr divided by maximal OD of control (control = 1) (Streptococcus gordonii; 5 μmol/ml): 1.0397
- extent of growth: maximal OD630 over 24 hr divided by maximal OD of control (control = 1) (Streptococcus gordonii; 10 μmol/ml): 1.0491
- extent of growth: maximal OD630 over 24 hr divided by maximal OD of control (control = 1) (Streptococcus gordonii; 20 μmol/ml): 1.0248
- extent of growth: maximal OD630 over 24 hr divided by maximal OD of control (control = 1) (Streptococcus gordonii; 25 μmol/ml): 1.0226
